Laboratory results reported in patent US9174994B2, “Enhanced treatment regimens using mTor inhibitors” (INTELLIKINE LLC, priority 2011, dated 2015).

Assay: Phase I clinical trial: treatment-emergent adverse events (patients, n (%)), dose limiting toxicity, MTD
Assay type: in vivo
Method: Safety, maximum tolerated dose (MTD), pharmacokinetics (PK) and preliminary antitumor activity were evaluated.
Pharmacodynamic (PD) endpoints were evaluated in surrogate (peripheral blood cells [PBCs], skin) and tumor tissues for the phosphorylation of TORC1-dependent markers (4EBP1/S6), and TORC2-dependent markers (AKT/PRAS40).

CC(C)n1nc(-c2ccc3oc(N)nc3c2)c2c(N)ncnc21 [compound A]
1 (4%): Grade 3 or greater TEAE: Abdominal pain upper (QD Dosing (N = 25)) | Grade 3 or greater TEAE: Anaemia (QD Dosing (N = 25)) | Grade 3 or greater TEAE: Catheter related infection (QD Dosing (N = 25)) | Grade 3 or greater TEAE: Cellulitis (QD Dosing (N = 25)) | Grade 3 or greater TEAE: Diarrhoea (QD Dosing (N = 25)) | Grade 3 or greater TEAE: Enterocutaneous fistula (QD Dosing (N = 25)) | Grade 3 or greater TEAE: Pancreatitis acute (QD Dosing (N = 25)) | Grade 3 or greater TEAE: Pleural effusion (QD Dosing (N = 25)) | Grade 3 or greater TEAE: Somnolence (QD Dosing (N = 25))
reversible: adverse events (AEs) reported: reversibility (3 intermittent dosing regimens)
3 (20%): Patients Reporting at Least One Grade 3 or Greater TEAE (QW Dosing (N = 15))
1 (2%): Catheter site inflammation (Table 8: Total (N = 60)) | Catheter site pain (Table 8: Total (N = 60)) | Coagulopathy (Table 8: Total (N = 60)) | Confusional state (Table 8: Total (N = 60)) | Cough (Table 8: Total (N = 60)) | DIARRHEA (Table 8: Total (N = 60)) | Dizziness (Table 8: Total (N = 60)) | Dyspnoea exertional (Table 8: Total (N = 60))
1 (7%): Grade 3 or greater TEAE: Asthenia (QDx3d QW (N = 14)) | Grade 3 or greater TEAE: Diarrhoea (QDx3d QW (N = 14)) | Grade 3 or greater TEAE: Disease progression (QDx3d QW (N = 14)) | Grade 3 or greater TEAE: Gamma-glutamyltransferase increased (QDx3d QW (N = 14)) | Grade 3 or greater TEAE: Gastroenteritis (QDx3d QW (N = 14)) | Grade 3 or greater TEAE: Hyperglycaemia (QDx3d QW (N = 14)) | Grade 3 or greater TEAE: Lymphopenia (QDx3d QW (N = 14)) | Grade 3 or greater TEAE: Rash macular (QDx3d QW (N = 14)) | Grade 3 or greater TEAE: Urinary tract infection (QDx3d QW (N = 14)) | Grade 3 or greater TEAE: Aspartate aminotransferase increased (QW Dosing (N = 15)) | Grade 3 or greater TEAE: Diarrhoea (QW Dosing (N = 15)) | Grade 3 or greater TEAE: Gamma-glutamyltransferase increased (QW Dosing (N = 15)) | Grade 3 or greater TEAE: Lymphopenia (QW Dosing (N = 15))
2 (8%): Grade 3 or greater TEAE: Hypokalaemia (QD Dosing (N = 25)) | Grade 3 or greater TEAE: Hyponatraemia (QD Dosing (N = 25)) | Grade 3 or greater TEAE: Lymphopenia (QD Dosing (N = 25)) | Grade 3 or greater TEAE: Pruritus (QD Dosing (N = 25)) | Grade 3 or greater TEAE: Thrombocytopenia (QD Dosing (N = 25))
7 (50%): Patients Reporting at Least One Grade 3 or Greater TEAE (QDx3d QW (N = 14))
0 (0%): Grade 3 or greater TEAE: Aspartate aminotransferase increased (QD Dosing (N = 25)) | Grade 3 or greater TEAE: Asthenia (QD Dosing (N = 25)) | Grade 3 or greater TEAE: Disease progression (QD Dosing (N = 25)) | Grade 3 or greater TEAE: Gamma-glutamyltransferase increased (QD Dosing (N = 25)) | Grade 3 or greater TEAE: Gastroenteritis (QD Dosing (N = 25)) | Grade 3 or greater TEAE: Rash macular (QD Dosing (N = 25)) | Grade 3 or greater TEAE: Urinary tract infection (QD Dosing (N = 25)) | Grade 3 or greater TEAE: Abdominal pain upper (QDx3d QW (N = 14)) | Grade 3 or greater TEAE: Anaemia (QDx3d QW (N = 14)) | Grade 3 or greater TEAE: Aspartate aminotransferase increased (QDx3d QW (N = 14)) | Grade 3 or greater TEAE: Catheter related infection (QDx3d QW (N = 14)) | Grade 3 or greater TEAE: Cellulitis (QDx3d QW (N = 14)) | Grade 3 or greater TEAE: Enterocutaneous fistula (QDx3d QW (N = 14)) | Grade 3 or greater TEAE: Hypokalaemia (QDx3d QW (N = 14)) | Grade 3 or greater TEAE: Hyponatraemia (QDx3d QW (N = 14)) | Grade 3 or greater TEAE: Pancreatitis acute (QDx3d QW (N = 14)) | Grade 3 or greater TEAE: Pleural effusion (QDx3d QW (N = 14)) | Grade 3 or greater TEAE: Pruritus (QDx3d QW (N = 14)) | Grade 3 or greater TEAE: Rash (QDx3d QW (N = 14)) | Grade 3 or greater TEAE: Somnolence (QDx3d QW (N = 14)) | Grade 3 or greater TEAE: Thrombocytopenia (QDx3d QW (N = 14)) | Grade 3 or greater TEAE: Abdominal pain upper (QDx5d QW (N = 6)) | Grade 3 or greater TEAE: Anaemia (QDx5d QW (N = 6)) | Grade 3 or greater TEAE: Aspartate aminotransferase increased (QDx5d QW (N = 6)) | Grade 3 or greater TEAE: Asthenia (QDx5d QW (N = 6)) | Grade 3 or greater TEAE: Catheter related infection (QDx5d QW (N = 6)) | Grade 3 or greater TEAE: Cellulitis (QDx5d QW (N = 6)) | Grade 3 or greater TEAE: Diarrhoea (QDx5d QW (N = 6)) | Grade 3 or greater TEAE: Disease progression (QDx5d QW (N = 6)) | Grade 3 or greater TEAE: Enterocutaneous fistula (QDx5d QW (N = 6)) | Grade 3 or greater TEAE: Gamma-glutamyltransferase increased (QDx5d QW (N = 6)) | Grade 3 or greater TEAE: Gastroenteritis (QDx5d QW (N = 6)) | Grade 3 or greater TEAE: Hyperglycaemia (QDx5d QW (N = 6)) | Grade 3 or greater TEAE: Hypokalaemia (QDx5d QW (N = 6)) | Grade 3 or greater TEAE: Hyponatraemia (QDx5d QW (N = 6)) | Grade 3 or greater TEAE: Lymphopenia (QDx5d QW (N = 6)) | Grade 3 or greater TEAE: Pancreatitis acute (QDx5d QW (N = 6)) | Grade 3 or greater TEAE: Pleural effusion (QDx5d QW (N = 6)) | Grade 3 or greater TEAE: Pruritus (QDx5d QW (N = 6)) | Grade 3 or greater TEAE: Rash (QDx5d QW (N = 6)) | Grade 3 or greater TEAE: Rash macular (QDx5d QW (N = 6)) | Grade 3 or greater TEAE: Somnolence (QDx5d QW (N = 6)) | Grade 3 or greater TEAE: Thrombocytopenia (QDx5d QW (N = 6)) | Grade 3 or greater TEAE: Urinary tract infection (QDx5d QW (N = 6)) | Patients Reporting at Least One Grade 3 or Greater TEAE (QDx5d QW (N = 6)) | Grade 3 or greater TEAE: Abdominal pain upper (QW Dosing (N = 15)) | Grade 3 or greater TEAE: Anaemia (QW Dosing (N = 15)) | Grade 3 or greater TEAE: Asthenia (QW Dosing (N = 15)) | Grade 3 or greater TEAE: Catheter related infection (QW Dosing (N = 15)) | Grade 3 or greater TEAE: Cellulitis (QW Dosing (N = 15)) | Grade 3 or greater TEAE: Disease progression (QW Dosing (N = 15)) | Grade 3 or greater TEAE: Enterocutaneous fistula (QW Dosing (N = 15)) | Grade 3 or greater TEAE: Gastroenteritis (QW Dosing (N = 15)) | Grade 3 or greater TEAE: Hyperglycaemia (QW Dosing (N = 15)) | Grade 3 or greater TEAE: Hypokalaemia (QW Dosing (N = 15)) | Grade 3 or greater TEAE: Hyponatraemia (QW Dosing (N = 15)) | Grade 3 or greater TEAE: Pancreatitis acute (QW Dosing (N = 15)) | Grade 3 or greater TEAE: Pleural effusion (QW Dosing (N = 15)) | Grade 3 or greater TEAE: Pruritus (QW Dosing (N = 15)) | Grade 3 or greater TEAE: Rash (QW Dosing (N = 15)) | Grade 3 or greater TEAE: Rash macular (QW Dosing (N = 15)) | Grade 3 or greater TEAE: Somnolence (QW Dosing (N = 15)) | Grade 3 or greater TEAE: Thrombocytopenia (QW Dosing (N = 15)) | Grade 3 or greater TEAE: Urinary tract infection (QW Dosing (N = 15))
Grade (G) 3 asthenia and G3 mucositis: Dose limiting toxicities (40 mg QW, 20 mg QDx3d QW and 13 mg QDxSd QW cohorts)
6%: lymphopenia, only reported Grade 3 or higher AE possibly related (3 regimens)
7 (28%): Grade 3 or greater TEAE: Rash (QD Dosing (N = 25))
15 (60%): Patients Reporting at Least One Grade 3 or Greater TEAE (QD Dosing (N = 25))
4 (16%): Grade 3 or greater TEAE: Hyperglycaemia (QD Dosing (N = 25))
